These results are taken from ChEMBL document CHEMBL1128960, “Phosphonic acid and phosphinic acid tripeptides as inhibitors of glutathionylspermidine synthetase” (Bioorg Med Chem Lett, 1996).

pKi: −log10 of the molar value.

Assay [1] addresses T1, Glutathionylspermidine synthase (Crithidia fasciculata) (UniProt P90518).
T1 sequence (whole entry): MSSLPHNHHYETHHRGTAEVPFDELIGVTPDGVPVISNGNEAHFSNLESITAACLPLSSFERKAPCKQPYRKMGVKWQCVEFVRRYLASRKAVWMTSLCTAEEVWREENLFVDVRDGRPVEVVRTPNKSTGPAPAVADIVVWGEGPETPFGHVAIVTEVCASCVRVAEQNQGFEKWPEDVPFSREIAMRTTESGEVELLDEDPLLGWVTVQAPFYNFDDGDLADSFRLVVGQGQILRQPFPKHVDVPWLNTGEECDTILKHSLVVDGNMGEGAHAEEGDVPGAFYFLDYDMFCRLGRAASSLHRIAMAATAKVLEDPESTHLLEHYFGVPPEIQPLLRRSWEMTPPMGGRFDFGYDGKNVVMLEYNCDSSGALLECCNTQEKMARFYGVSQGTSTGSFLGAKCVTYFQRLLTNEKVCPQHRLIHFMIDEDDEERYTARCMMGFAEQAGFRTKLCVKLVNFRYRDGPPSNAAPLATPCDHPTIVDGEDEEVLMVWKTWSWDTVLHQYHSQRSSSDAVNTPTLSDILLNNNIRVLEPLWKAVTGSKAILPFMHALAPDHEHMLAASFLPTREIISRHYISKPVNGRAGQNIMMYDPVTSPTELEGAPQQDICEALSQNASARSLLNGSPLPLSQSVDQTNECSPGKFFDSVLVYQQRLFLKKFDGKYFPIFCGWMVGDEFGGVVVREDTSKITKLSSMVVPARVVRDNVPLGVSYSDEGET
The assay is described as follows: Compound was tested for inhibitory activity against glutathionylspermidine synthetase in the presence of 5 mM glutathione and spermidine; Not inhibition.

Assay [2] concerns the target T1, Glutathionylspermidine synthase (Crithidia fasciculata). The assay is described as follows: Compound was tested for inhibitory activity against glutathionyl spermidine synthetase in the presence of 5 mM glutathione and spermidine.
The target is the same in assay [3]. The assay is described as follows: Compound was tested for inhibitory activity against glutathionylspermidine synthetase in the presence of 5 mM glutathione and spermidine.
The target in assay [4] is T2, Glutathionylspermidine synthase (Crithidia fasciculata, UniProt P90518).
T2 sequence (P90518 whole entry): T1 sequence (whole entry)
The assay is described as follows: Compound was tested for linear non-competitive inhibitory activity against glutathionylspermidine synthetase.

One may read the inhibition as the relative decrease from the control value, in per cent. For orientation: pKi means the Ki on a negative log10 scale, so that one unit is a factor of ten.

For `CC(C)[C@H](NC(=O)[C@@H](N)CCC(=O)O)C(=O)NCCP(=O)(O)O`, the inhibition entry in assay [1] is “No inhibition”.

Take `COC(=O)CCP(=O)(O)C(C)NC(=O)[C@@H](NC(=O)[C@@H](N)CCC(=O)O)C(C)C` (some centres undefined): in assay [2], the inhibition was 15%. Regarding `CC(C)[C@H](NC(=O)[C@@H](N)CCC(=O)O)C(=O)NCCCP(=O)(O)O`, the inhibition entry in assay [1] is “No inhibition”. Take `CC(C)C[C@H](NC(=O)[C@@H](N)CCC(=O)O)C(=O)NCP(=O)(Oc1ccccc1)Oc1ccccc1`: the inhibition in assay [3] amounted to 76%. Regarding `CC(C)[C@H](NC(=O)[C@@H](N)CCC(=O)O)C(=O)NCC(=O)CP(=O)(O)O`, in assay [1], the inhibition entry is “No inhibition”.

On to `COC(=O)CCP(=O)(O)CNC(=O)[C@@H](NC(=O)[C@@H](N)CCC(=O)O)C(C)C`, for which the inhibition in assay [3] is 71%.

On to `CC(C)[C@H](NC(=O)[C@@H](N)CCC(=O)O)C(=O)NCC(O)CP(=O)(O)O` (some centres undefined), for which, in assay [1], the inhibition entry was “No inhibition”. For `CC(C)[C@H](NC(=O)[C@@H](N)CCC(=O)O)C(=O)NC(C)P(C)(=O)O` (some centres undefined), in assay [3], the inhibition was determined as 14%. Regarding `CC(C)[C@H](NC(=O)[C@@H](N)CCC(=O)O)C(=O)NC[PH](=O)O`, in assay [3], the inhibition turned out to be 50%. Take `CC(C)[C@H](NC(=O)[C@@H](N)CCC(=O)O)C(=O)NCC(N)CP(=O)(O)O` (some centres undefined): in assay [3], the inhibition turned out to be 10%.

Regarding `CC(C)[C@H](NC(=O)[C@@H](N)CCC(=O)O)C(=O)NCP(=O)(O)CCC(N)=O`, in assay [3], the inhibition came to 11%. The same measure, in the same setting: with `CC(C)C[C@H](NC(=O)[C@@H](N)CCC(=O)O)C(=O)NCC(=O)CP(=O)(O)O` the figure was 62%.

For the molecule `CC(C)C[C@H](NC(=O)[C@@H](N)CCC(=O)O)C(=O)NCP(=O)(O)O`, the pKi in assay [4] is 4.22. Besides, the inhibition in assay [3] was 86%.

Regarding `CC(C)C[C@H](NC(=O)[C@@H](N)CCC(=O)O)C(=O)Nc1ccc(CP(=O)(O)O)cc1`, the inhibition entry in assay [1] was “No inhibition”. `CC(C)[C@H](NC(=O)[C@@H](N)CCC(=O)O)C(=O)NCP(=O)(O)O`: the pKi in assay [4] was 3.54. Besides, the inhibition in assay [3] stood at 78%.

Consider `CC(C)[C@H](NC(=O)[C@@H](N)CCC(=O)O)C(=O)NCP(C)(=O)O`, for which the inhibition in assay [3] came out at 26%. In the case of `CC(C)C[C@H](NC(=O)[C@@H](N)CCC(=O)O)C(=O)NCCCP(=O)(O)O`, the inhibition in assay [3] is 24%.
